Data on two molecules can be found in PMC8507260, “A2E-induced inflammation and angiogenesis in RPE cells in vitro are modulated by PPAR-α, -β/δ, -γ, and RXR antagonists and by norbixin” (Aging (Albany NY), 2021).

For test [1], the target named is T1, RXR-α (Homo sapiens, UniProt P19793).
T1 construct: Eurofins Cerep (contract laboratory that ran the assay)
T1 sequence (P19793 1-462): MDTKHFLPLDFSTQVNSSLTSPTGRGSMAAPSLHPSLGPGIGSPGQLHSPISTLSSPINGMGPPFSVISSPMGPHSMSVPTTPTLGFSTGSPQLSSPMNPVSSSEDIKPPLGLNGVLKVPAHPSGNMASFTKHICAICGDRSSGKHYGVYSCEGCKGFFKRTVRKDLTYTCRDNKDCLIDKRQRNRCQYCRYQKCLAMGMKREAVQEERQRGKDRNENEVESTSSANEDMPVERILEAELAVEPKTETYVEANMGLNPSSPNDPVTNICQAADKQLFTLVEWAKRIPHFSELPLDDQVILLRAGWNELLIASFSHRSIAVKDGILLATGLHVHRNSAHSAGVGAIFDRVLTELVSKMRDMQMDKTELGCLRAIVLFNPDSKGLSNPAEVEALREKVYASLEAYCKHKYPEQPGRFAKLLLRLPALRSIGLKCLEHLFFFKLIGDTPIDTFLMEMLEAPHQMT
Briefly: Competition binding to RXR-α against [3H]9-cis-retinoic acid (Eurofins Cerep). As to conditions: for pIC50 / pKd: competition with [3H]9-cis-retinoic acid. As to the method:
To confirm this hypothesis, we tested by competition experiments whether A2E and norbixin could bind to RXR-α. […] In similar transactivation experiments, we tested the activity of norbixin alone or added to A2E on RXR transactivation.
Binding studies of A2E and norbixin to RXR-α and PPAR-α and γ were performed in vitro by an external laboratory (Eurofins Cerep, Celle L’Evescault, France) through competition experiments between A2E or norbixin and [^3H]9-cis-retinoic acid as the natural ligand of RXR-α, [^3H]GW7647 an agonist of PPAR-α and [^3H]Rosiglitazone an agonist of PPAR-γ.

Test [2] has as its system PPAR-β/δ. Briefly: Transactivation of over-expressed PPAR-β/δ, luciferase reporter in porcine RPE cells. The conditions noted are these: for transactivation of over-expressed PPAR-β/δ by the compound alone: vs DMSO control, A2E 20 μM, NBX increasing concentrations. Type of test: cell-based, pig. As for the experimental part:
Then the effects of A2E on the endogenous PPAR transactivation in porcine RPE cells were investigated by means of a luciferase assay. […] The level of transactivation of PPAR-α, -β/δ, or -γ isoforms by A2E was determined by co-transfection of porcine RPE cells with a plasmid expressing each of the full-length PPAR isoforms and a plasmid expressing luciferase under the control of the PPAR response element. […] All usual chemicals, primers, and HX531 were from Sigma (St. Louis, MO, USA). Reagents for cell culture, transfection and quantitative RT-PCR were from Thermo Fisher Scientific (Waltham, MA, USA). RNA extraction NucleoSpin® RNA kit was from Macherey Nagel (Düren, Germany). ECL prime and PVDF membrane were from Amersham GE Healthcare (Buckinghamshire, UK). Primary antibodies against the following proteins were used: GAPDH (Santa Cruz Biotechnology, Inc, Dallas, TX, USA); pAKT, AKT, pERK and ERK (Cell Signaling, Danvers, MA, USA). Secondary antibodies were from Jackson ImmunoResearch (Cambridgeshire, UK). […] Cignal Pathway Reporter Assay Kits were from QIAGEN (Frederick, MD, USA). The Dual-Luciferase Reporter Assay System was purchased from Promega (Madison, WI, USA). pcDNA 3.1 (+)-PPARα and pcDNA 3.1 (+)-PPARβ/δ (pig sequence) were purchased from Genscript (Piscataway, NJ, USA). pCMV6-XL4-PPARγ (human sequence) was purchased from Origene (Rockville, MD, USA).
(§1) After one week in culture, cells were trypsinized and transferred to a 96-well plate at a density of 6 × 10^4 cells/cm^2 in DMEM2%FCS. The next day, cells were transfected using the Cignal Reporter Assay Kits for PPAR, RXR, AP-1 and NF-κB, according to the manufacturer’s specifications. To measure the specific activation of PPAR isoforms, cells were also co-transfected with PPAR-α, PPAR-β/δ or PPAR-γ expression vectors. Transfection was performed with Lipofectamine and Plus Reagent in serum-free medium. 3 h after the transfection, the medium was replaced and treatments with the molecules to assay were performed. Luciferase activity was measured the next day using the Dual-Luciferase Reporter Assay System. The measurements were performed with a luminometer (Infinite M1000 from Tecan, Mannedorf, Switzerland). Firefly: Renilla activity ratios were calculated for each condition and ratios from transcription factor-responsive reporter transfections were divided by ratios from negative control transfections to obtain relative luciferase unit, as described by the manufacturer. At least 3 independent transfections were performed in triplicate for each condition.
Background: In a reporter assay the amount or activity of a reporter protein is the signal.

The test system of test [3] is AP-1. The experiment in a line: AP-1 transactivation, luciferase reporter in porcine RPE cells. Type of test: cell-based. As for the experimental part:
(§2) Pig eyes were obtained from a local slaughterhouse and transported to the laboratory in ice-cold Ringer solution. After removal of the anterior segment of the eye, the vitreous and neural retina was separated from the RPE and removed. The eyecup was washed twice with phosphate buffer saline (PBS), filled with trypsin (0.25% in PBS) and incubated at 37°C for 1.5 h. RPE cells were harvested by gently pipetting, centrifuged to remove trypsin and re-suspended in Dulbecco’s Modified Eagle Medium (DMEM) supplemented with 20% (v/v) foetal-calf serum (DMEM20%FCS) and 0.1% gentamycin. Cells were seeded into 60 mm diameter Petri dishes, cultured in an atmosphere of 5% CO2/95% air at 37°C, and supplied with fresh medium after 24 hours and 4 days in vitro. For experiments aimed at measuring mRNA or protein expression in RPE, cells were trypsinized after one week in culture and transferred to 24-well or 6-well plates at a density of 1.5 × 10^5 cells/cm^2 in DMEM2%FCS. Norbixin or agonists were added to the medium 24 h after seeding, and antagonists were added to the medium 24 h later. A2E treatment was performed during 19 h before cellular sample preparation. All the drugs used in these experiments were prepared as stock solutions in DMSO.
as §1, with “Transfection was performed with Lipofectamine and Plus Reagent in serum-free medium. 3 h after the transfection, the medium was replaced and treatments with the molecules to assay were performed.” left out, “The measurements were performed with a luminometer (Infinite M1000 from Tecan, Mannedorf, Switzerland).” left out, “At least 3 independent transfections were performed in triplicate for each condition.” left out

For test [4], the system named is IL-6. The experiment in a line: IL-6 mRNA expression by quantitative RT-PCR in porcine RPE cells. Type of test: cell-based. As to conditions: T007907 10 μM. As for the experimental part:
as §2
(§3) Total RNA was extracted using the NucleoSpin® RNA kit according to manufacturer’s instructions. RT of 500 ng of RNA was performed using the SuperScript III Reverse Transcriptase following the manufacturer’s instructions. Five ng of cDNA were amplified using the SYBR GREEN real-time PCR method. PCR primers for target genes and housekeeping gene GAPDH were designed using Primer3Plus Bioinformatic software (Table 2). The RT-PCR using the StepOne Plus (Life Technologies, Carlsbad, CA, USA) consisted of incubation at 50°C for 5 min followed by 40 cycles of 95°C for 15 s and of 60°C for 1 min. The reaction was completed by a melt curve stage at 95°C for 15 s, 60°C for 1 min, 95°C for 15 s and a final step at 60°C for 15 s. The relative mRNA expression was calculated using the comparative threshold method (Ct-method) with GAPDH for normalization. All experimental conditions were processed in triplicate and each experiment was done at least 3 times.

In test [5] the test system is IL-18. The experiment in a line: IL-18 mRNA expression by quantitative RT-PCR in porcine RPE cells. Type of test: cell-based. As to the method:
as §2, with “All the drugs used in these experiments were prepared as stock solutions in DMSO.” left out
Total RNA was extracted using the NucleoSpin® RNA kit according to manufacturer’s instructions. […] The relative mRNA expression was calculated using the comparative threshold method (Ct-method) with GAPDH for normalization. […]

Test [6] concerns VEGF. The experiment in a line: VEGF mRNA expression by quantitative RT-PCR in porcine RPE cells. Type of test: cell-based. As for the experimental part: as §2
as §3, with “All experimental conditions were processed in triplicate and each experiment was done at least 3 times.” left out

pIC50, pKd: −log10 of the molar value.

In test [1], `CC(/C=C/C=C(C)/C=C/C(=O)O)=C\C=C\C=C(C)\C=C\C=C(C)\C=C\C(=O)O` (stereo in doubt) [norbixin, 9’-cis-norbixin] showed a pIC50 of 4.19 and a pKd of 4.34. The “effect on over-expressed PPAR-β/δ transactivation induced by A2E” value in test [2] (A2E 20 μM + NBX 20 μM) is “fully abolished”. Also, in test [2] (GW0742 at 1 nM, NBX 20 μM), the “inhibition of PPAR-β/δ transactivation induced by GW0742” value is listed as “did not inhibit significantly”. Further, in test [2], the “transactivation of over-expressed PPAR-β/δ by the compound alone” value is given as “did not demonstrate any transactivation activity”. The “inhibition of AP-1 transactivation induced by A2E” value in test [3] (A2E 20 μM, NBX 20 μM, HX531 5 μM) worked out at 82%. In test [4] (NBX 20 μM with A2E 30 μM, MK886 1 μM, GSK3787 1 μM, HX531 5 μM with A2E 20 μM), the “reduction of IL-6 mRNA expression induced by A2E” value is 145%. Besides, the “effect on IL-18 expression induced by A2E” value in test [5] (NBX 20 μM + A2E 30 μM, PPAR antagonists) is given as “not inhibited”. Further, the “effect on VEGF mRNA expression induced by A2E” value in test [6] (NBX 20 μM with A2E 30 μM, MK886 1 μM, GSK3787 1 μM, T007907 10 μM, alone or as mixture, with A2E 20 μM) is “significantly inhibited”.
In test [1], `CC(C=CC1=C(C)CCCC1(C)C)=CC=CC(C)=Cc1cc(C=CC=C(C)C=CC2=C(C)CCCC2(C)C)cc[n+]1CCO` [A2E, N-retinylidene-N-retinylethanolamine] gave a pIC50 of 5.21 and a pKd of 5.37. Further, in test [1] (ratio of KDs), the “binding affinity of A2E for RXR-α relative to norbixin (higher)” value stood at 10 fold. In addition, in test [2], the “transactivation of over-expressed PPAR-β/δ by the compound alone” value is given as “induced the transactivation”. Also, the “effect of the compound alone on AP-1 transactivation” value in test [3] (A2E 20 μM vs DMSO control) was “induced transactivation of AP-1”. Moreover, the “effect of the compound alone on IL-6 mRNA expression” value in test [4] (vs DMSO control) is “induces the expression”. In addition, the “effect of the compound alone on IL-18 mRNA expression” value in test [5] (A2E 30 μM vs DMSO control) is on record as “induced by A2E”. The “enhancement of VEGF mRNA expression by the compound alone” value in test [6] (A2E 30 μM vs DMSO control) is on record as “approximately 9 fold”.

What is called pIC50 is the negative decadic logarithm of the IC50, by convention in mol/L. High values mean a low IC50, low ones a high IC50. A word on the pKd: it is the negative decadic logarithm of the Kd, by convention in mol/L. A low value points to a large Kd.
